Measured values reported in patent US12557829B2, “Liquid-phase, supplementary feed composition containing coenzyme Q10” (priority 2021, dated 2026).
Read-outs that look alike come from different tables or passages of the source.

Test: Single intravenous administration, plasma concentration of coenzyme Q10
Type: in vivo
Conditions: rat, 6 mg/kg, rats
Experimental: The supplementary feed composition containing coenzyme Q10 was orally administered to rats for 5 consecutive days, and systemic absorption was examined after oral administration on the 5th day. In addition, a single intravenous injection test was performed to evaluate the absorption rate (bioavailability).
Single Intravenous Administration Experiment
Plasma concentration measurement after intravenous coenzyme Q10 administration: dose (6 mg/kg), measured up to 6 hours
Plasma Collection after Intravenous Administration
After lightly anesthetizing the rats with ether, a polyethylene tube (PE-50, Intramedic, Clay Adams, USA) was intubated into the left femoral artery and vein. After the rats recovered from anesthesia, coenzyme Q10 was intravenously administered (6 mg/kg), and blood was collected from the left femoral artery at 0 (blank), 1, 5, 10, 15, 30, 60, 90, 120 and 180 minutes. 250 μl of blood was received in a microtube, and 100 μl of plasma obtained after centrifugation was used for quantification.
Quantification of the Concentration of Coenzyme Q10 in Plasma
For coenzyme Q10, a calibration curve was prepared in which a good linear relationship (R=0.999) was established in the concentration range of 0.05 μg/mL to 10 μg/mL. […] 100 μL of this was taken and quantified by the HPLC assay described above.

half-life (read-out: half-life (t1/2,α) in the pre-distribution phase (α phase)): 3.3 min
half-life (read-out: half-life (t1/2,β) in the post-distribution phase (β phase)): 52 min
Structure (SMILES): COC1=C(OC)C(=O)C(C/C=C(\C)CC/C=C(\C)CC/C=C(\C)CC/C=C(\C)CC/C=C(\C)CC/C=C(\C)CC/C=C(\C)CC/C=C(\C)CC/C=C(\C)CCC=C(C)C)=C(C)C1=O [coenzyme Q10, 2,3-dimethoxy-5-methyl-6-decaprenyl-1,4-benzoquinone]
